Reference: paper PMC6273138, “Inhibitory Effects of Aschantin on Cytochrome P450 and Uridine 5′-diphospho-glucuronosyltransferase Enzyme Activities in Human Liver Microsomes” (Molecules, 2016)
Where two headings read alike, the source gives them in different places.

Tests used:
CYP2A6 = target: T1, CYP2A6 (Homo sapiens, UniProt P11509); experiment: CYP2A6-catalyzed coumarin 7-hydroxylase inhibition in pooled human liver microsomes
T1 sequence (P11509 1-494): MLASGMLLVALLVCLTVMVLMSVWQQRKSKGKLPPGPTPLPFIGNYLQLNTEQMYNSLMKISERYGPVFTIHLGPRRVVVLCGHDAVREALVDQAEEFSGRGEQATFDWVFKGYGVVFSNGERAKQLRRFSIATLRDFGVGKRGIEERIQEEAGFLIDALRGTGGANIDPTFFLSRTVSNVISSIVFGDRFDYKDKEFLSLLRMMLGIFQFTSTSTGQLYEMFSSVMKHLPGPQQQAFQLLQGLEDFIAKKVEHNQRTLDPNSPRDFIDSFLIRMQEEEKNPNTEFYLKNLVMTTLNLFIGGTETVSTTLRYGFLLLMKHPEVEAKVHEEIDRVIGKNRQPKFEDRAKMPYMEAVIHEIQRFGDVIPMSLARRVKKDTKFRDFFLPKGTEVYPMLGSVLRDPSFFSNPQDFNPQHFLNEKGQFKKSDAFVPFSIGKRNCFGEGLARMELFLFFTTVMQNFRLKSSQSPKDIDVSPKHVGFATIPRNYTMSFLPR
Experimental: (§2) The degrees of inhibition (the IC50 values) of aschantin toward CYP1A2, CYP2A6, CYP2C8, CYP2C9, CYP2C19, CYP2D6, and CYP3A4 were evaluated using pooled human liver microsomes employing a cocktail of CYP substrates and liquid chromatography-tandem mass spectrometry (LC-MS/MS). […] After 3 min pre-incubation at 37 °C, the reactions were initiated by addition of NADPH and incubation proceeded for 15 min at 37 °C in a shaking water bath. The reaction was stopped by placing the tubes on ice and adding 100 µL amounts of ice-cold methanol containing internal standards (^13C2,^15N-acetaminophen for acetaminophen and N-desethylamodiaquine; d9-1′-hydroxybufuralol for 4′-hydroxydiclofenac; and 7-hydroxycoumarin, 4′-hydroxy-mephenytoin, 1′-hydroxybufuralol, and 1′-hydroxymidazolam). Then the incubation mixtures were centrifuged at 13,000× g for 4 min at 4 °C. All assays were performed in triplicate and the average values were used in calculations.
(§3) To this end, we employed a tandem mass spectrometer (TSQ Quantum Access, Thermo Scientific, San Jose, CA, USA) coupled to a Nanospace SI-2 LC system (Shiseido, Tokyo, Japan). The column and autosampler temperatures were 50 °C and 6 °C, respectively. The mass spectrometer was equipped with an electrospray ionization (ESI) source and was operated in positive ion mode. The ESI source settings for metabolite ionization were as follows: capillary voltage, 4200 V; vaporizer temperature, 350 °C; capillary temperature 330 °C; sheath gas pressure, 35 psi; and auxiliary gas pressure, 15 psi. […] Analytical data were processed using Xcalibur® software (Thermo Scientific).
(§4) The apparent kinetic inhibitory potentials (the Ki values) were estimated from the fitted curves using Enzyme Kinetics version 1.1 (Systat Software Inc.).

CYP1A2 = target: T2, CYP1A2 (Homo sapiens, UniProt P05177); experiment: CYP1A2-catalyzed phenacetin O-de-ethylase inhibition in pooled human liver microsomes
T2 sequence (P05177 1-516): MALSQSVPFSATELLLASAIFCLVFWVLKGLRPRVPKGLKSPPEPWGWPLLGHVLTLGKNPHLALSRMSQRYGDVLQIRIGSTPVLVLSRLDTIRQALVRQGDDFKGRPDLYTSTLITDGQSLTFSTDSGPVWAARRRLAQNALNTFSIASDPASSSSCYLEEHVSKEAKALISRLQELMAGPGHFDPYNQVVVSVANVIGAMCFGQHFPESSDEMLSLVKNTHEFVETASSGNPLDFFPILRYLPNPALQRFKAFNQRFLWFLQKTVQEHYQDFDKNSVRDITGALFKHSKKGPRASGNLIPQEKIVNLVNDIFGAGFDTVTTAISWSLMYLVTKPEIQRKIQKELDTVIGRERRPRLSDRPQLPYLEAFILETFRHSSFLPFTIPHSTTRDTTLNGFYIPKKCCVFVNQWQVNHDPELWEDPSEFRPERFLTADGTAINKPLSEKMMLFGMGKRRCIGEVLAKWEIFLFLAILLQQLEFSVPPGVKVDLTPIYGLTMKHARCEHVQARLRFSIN
Experimental: as §2, §3, §4

CYP2C8 = target: T3, CYP2C8 (Homo sapiens, UniProt P10632); experiment: Mechanism-based (time- and concentration-dependent) inactivation of CYP2C8 in human liver microsomes; assay type: in vitro ADME; settings: CYP2C8-mediated amodiaquine N-de-ethylation
T3 sequence (P10632 1-490): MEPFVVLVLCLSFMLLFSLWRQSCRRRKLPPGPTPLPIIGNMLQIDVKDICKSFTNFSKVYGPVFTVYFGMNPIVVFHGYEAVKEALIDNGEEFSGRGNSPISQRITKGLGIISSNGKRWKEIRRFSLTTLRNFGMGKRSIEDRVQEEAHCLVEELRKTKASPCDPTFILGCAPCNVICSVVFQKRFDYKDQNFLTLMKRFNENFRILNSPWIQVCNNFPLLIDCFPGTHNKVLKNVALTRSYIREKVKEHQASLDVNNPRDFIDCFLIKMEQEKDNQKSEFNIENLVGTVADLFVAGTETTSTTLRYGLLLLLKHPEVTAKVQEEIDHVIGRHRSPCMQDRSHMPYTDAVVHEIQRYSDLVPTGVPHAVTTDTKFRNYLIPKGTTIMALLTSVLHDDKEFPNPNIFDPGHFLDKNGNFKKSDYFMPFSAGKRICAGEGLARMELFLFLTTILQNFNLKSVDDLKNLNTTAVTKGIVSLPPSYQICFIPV
Experimental: (§1) The microsomes (1 mg/mL) were pre-incubated with various concentrations of aschantin in 50 mM potassium phosphate buffer (pH 7.4) in the presence of NADPH. Aliquots (10 µL) of the incubated mixtures were withdrawn at 5, 10, 15, and 20 min after incubation commenced and added to other tubes containing the CYP substrates (2 µM amodiaquine for CYP2C8, 10 µM diclofenac for CYP2C9, 100 µM [S]-mephenytoin for CYP2C19, or 2 µM midazolam for CYP3A4), 1 mM NADPH, 50 mM potassium phosphate buffer (pH 7.4), and 10 mM MgCl2, in 90 µL reaction mixtures. […] Aliquots (5 µL) of the diluted supernatants were analyzed by LC-MS/MS, as described above.

CYP2C9 = CYP2C9 (Homo sapiens, UniProt P11712); experiment: Mechanism-based (time- and concentration-dependent) inactivation of CYP2C9 in human liver microsomes; assay type: in vitro ADME; settings: CYP2C9-catalyzed diclofenac 4′-hydroxylation
CYP2C9, sequence (P11712 whole entry): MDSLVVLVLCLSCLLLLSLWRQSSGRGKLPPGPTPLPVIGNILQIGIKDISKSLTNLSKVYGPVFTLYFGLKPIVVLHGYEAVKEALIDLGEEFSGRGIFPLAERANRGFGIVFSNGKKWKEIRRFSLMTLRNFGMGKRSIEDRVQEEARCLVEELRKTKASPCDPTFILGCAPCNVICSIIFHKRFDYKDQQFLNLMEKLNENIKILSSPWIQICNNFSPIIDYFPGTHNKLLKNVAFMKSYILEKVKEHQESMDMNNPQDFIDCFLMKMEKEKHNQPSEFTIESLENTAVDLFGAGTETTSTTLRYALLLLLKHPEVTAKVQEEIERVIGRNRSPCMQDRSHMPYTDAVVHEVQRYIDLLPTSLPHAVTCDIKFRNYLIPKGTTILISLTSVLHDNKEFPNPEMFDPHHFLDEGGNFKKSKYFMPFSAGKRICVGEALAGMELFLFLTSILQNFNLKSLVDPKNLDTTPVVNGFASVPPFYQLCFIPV
Experimental: as §1

[1] = aschantin at 100 µM, human liver microsomes

SMILES: COc1cc([C@H]2OC[C@H]3[C@@H]2CO[C@@H]3c2ccc3c(c2)OCO3)cc(OC)c1OC [Aschantin]
- IC50 (CYP2A6): > 100 µM
- inhibition of CYP2A6-mediated coumarin 7-hydroxylation (CYP2A6; [1]): negligibly inhibited
- IC50 (CYP2A6; read-out: IC50 With Pre-incubation, CYP2A6 coumarin 7-hydroxylase, 2.5 µM coumarin, 30 min pre-incubation with microsomes and NADPH): > 100 µM
- IC50 (CYP1A2): > 100 µM
- inhibition of CYP1A2-mediated phenacetin O-de-ethylation (CYP1A2; [1]): negligibly inhibited
- IC50 (CYP1A2; read-out: IC50 With Pre-incubation, CYP1A2 phenacetin O-de-ethylase, 50 µM phenacetin, 30 min pre-incubation with microsomes and NADPH): > 100 µM
- Ki (CYP2C8; read-out: Ki (apparent)): 10.2 µM
- kinact (CYP2C8; pH 7.4, probe amodiaquine (2 µM)): 0.000933 s⁻¹
- Ki (CYP2C9; read-out: Ki (apparent)): 3.7 µM
- kinact (CYP2C9; pH 7.4, probe diclofenac (10 µM)): 0.000733 s⁻¹
